Entries after “also recorded” stand apart in the source; their conditions may differ.
Columns and labels:
[1] = system: hypocotyl explants of tomato cultivar Ailsa Craig; assay: Callus formation of tomato hypocotyl explants on callus-inducing medium (CIM); format: cell-based
Procedure: FIG. 6—(a) Hypocotyl explants of WT (Ailsa Craig, AC) and prr mutants were cultured on callus-inducing medium (CIM) in the absence of SIPEP (REF1) and CIM REF1 at a concentration of 1 nM for 14 days, photographs of the callus formation of these plants are shown. (b) The distribution of projected callus area of WT and prr mutants grown in the absence of REF1 in a callus inducing medium (control) and in a callus inducing medium in the presence of 1 nM SIPEP (REF1). The projected area of callus was quantified by Image J. Individual values (black dots) are shown and error bars represent SD from three independent experiments.
FIG. 9—Hypocotyl explants of WT (Ailsa Craig, AC) were cultured on callus-inducing medium (CIM) containing indicated concentrations of REF1, and callus phenotype was scored 14 days after incubation. […] The projected area of callus was quantified by Image J. Individual values (black dots) are shown and error bars represent SD from three independent experiments. ***P<0.001, **P<0.01, *P<0.05 (Student's t-test).
Relative callus area was determined by quantifying the area of each callus using ImageJ, the average of each group was calculated, for each group this was then divided by the average of the control group.
To further test whether SIPEP (REF1) is a wound signal promoting regeneration in tomato, wild type, prr-1 and prr-2 Aisla Craig hypocotyl explants were cultured on a callus inducing medium in the presence and absence of SIPEP (REF1) at 1 nM. The callus phenotype was then scored at 14 days after incubation (FIG. 6), here it can be seen that presence of 1 nM REF1 in the medium increased callus area in all explants tested, crucially, the relative callus area of prr-1 and prr-2 was restored when REF1 was present in the medium.
To test the effect of the dose of SIPEP (REF1) on callus formation hypocotyl explants of WT (Ailsa Craig) were cultured on callus-inducing medium (CIM) containing indicated concentrations of REF1 in FIG. 9 (mock with 0, 10^−4, 10^−3, […], 1, and 10 nM) and callus phenotype was scored 14 days after incubation. Box plots represent the distribution of projected callus area.
Callus formation was measured in RER knock out mutants (rer-1 and rer-3) compared to wild type (WT) tomato plants (Ailsa Craig) in the presence and absence of SIPEP (REF1). […] Here it can be seen that callus area was highest in WT plant grown with REF1, as REF1 induces callus formation, as shown in Examples 2 and 4.

[2] = system: hypocotyl explants of tomato cultivar Ailsa Craig; assay: Shoot regeneration of tomato hypocotyl explants on shoot inducing medium (SIM); format: cell-based
Procedure: FIG. 8—Hypocotyl explants of wild-type (WT) Ailsa Craig and prr mutants cultured in the presence or absence of SIPEP (REF1) at 1 nM in a shoot inducing medium for 21 days.
Relative regeneration frequency was determined by counting the number of regenerated shoots and calculating the average for each group, the average of each group was then divided by the average of the control group.
The number of hypocotyls means explants with varying numbers of regenerated shoots.
To test whether SIPEP (REF1) could rescue shoot regeneration defects in prr mutants were cultured in shoot inducing medium (SIM) in the presence and absence of 1 nM REF1. Shoot regeneration was then scored after 21 days.
Relative regeneration frequency was determined by counting the number of regenerated shoots and calculating the average for each group, the average of each group was then divided by the average of the WT-Mock group.
‘The number of hypocotyls’ means explants with different number of regenerated shoots (0, 1, 2, 3 and ≥4) in each of the genotypes (WT, prr-1, prr-2).
Shoot regeneration was also measured in RER knock out mutants (rer-1 and rer-3) compared to wild type (WT) tomato plants (Ailsa Craig) in the presence and absence of SIPEP (REF1).

[3] = system: RER1-SERKs receptor complex; assay: Co-immunoprecipitation of RER with SERKs in tobacco leaves; format: cell-based, tomato; conditions: 100 nM REF1
Procedure: FIG. 49—REF1-RER1 regulates regeneration through SERK co-receptors. (a) RER1 complexes with SERK1, SERK3a and SERK3b in a REF1-dependent manner. Tobacco leaves transfected with SERKs-myc and RER1-HA-Flag were treated with 100 nM REF1 before IP with anti-myc agarose. RER1 and SERKs were detected by immunoblotting with anti-Flag or anti-myc antibodies, respectively. (b and c) REF1-induced callus formation of indicated genotypes. Hypocotyl explants were cultured on CIM with or without 1 nM REF1 for 14 d before callus phenotype was scored. Shown are representative callus images (b) and quantification of the callus projection area (c). Bars, 1 mm. Data are mean±SE. n=30 hypocotyl explants. (d and e) REF1-induced shoot organogenesis of indicated genotypes. Hypocotyl explants were cultured on CIM for 14 d and then transferred to SIM with or without 1 nM REF1 for 21d before shoot organogenesis phenotype was scored. Shown are representative images of hypocotyl explants (d) and the number of regenerated shoots per explant (e). Bars, 0.5 cm. Data are mean±SE. n=50 hypocotyl explants. In (c), the projected area of callus was quantified by Image J. Box plots represented the distribution of projected callus area. […] In (c) and (e), data points from three biological replicates were analysed with a one-sided Kruskal-Wallis test with Holm correction, followed by post hoc Dunn's test. […]

RER = assay: Autophosphorylation assay of RER in tobacco leaves; format: cell-based, tomato; conditions: 100 nM, 20 min
[4] = rer-1 and rer-3 knockouts, presence vs absence of REF1
[5] = WT, prr-1 and prr-2, SIM with 1 nM REF1, 21 days

Chain of RER1-SERKs receptor complex (as listed by the source): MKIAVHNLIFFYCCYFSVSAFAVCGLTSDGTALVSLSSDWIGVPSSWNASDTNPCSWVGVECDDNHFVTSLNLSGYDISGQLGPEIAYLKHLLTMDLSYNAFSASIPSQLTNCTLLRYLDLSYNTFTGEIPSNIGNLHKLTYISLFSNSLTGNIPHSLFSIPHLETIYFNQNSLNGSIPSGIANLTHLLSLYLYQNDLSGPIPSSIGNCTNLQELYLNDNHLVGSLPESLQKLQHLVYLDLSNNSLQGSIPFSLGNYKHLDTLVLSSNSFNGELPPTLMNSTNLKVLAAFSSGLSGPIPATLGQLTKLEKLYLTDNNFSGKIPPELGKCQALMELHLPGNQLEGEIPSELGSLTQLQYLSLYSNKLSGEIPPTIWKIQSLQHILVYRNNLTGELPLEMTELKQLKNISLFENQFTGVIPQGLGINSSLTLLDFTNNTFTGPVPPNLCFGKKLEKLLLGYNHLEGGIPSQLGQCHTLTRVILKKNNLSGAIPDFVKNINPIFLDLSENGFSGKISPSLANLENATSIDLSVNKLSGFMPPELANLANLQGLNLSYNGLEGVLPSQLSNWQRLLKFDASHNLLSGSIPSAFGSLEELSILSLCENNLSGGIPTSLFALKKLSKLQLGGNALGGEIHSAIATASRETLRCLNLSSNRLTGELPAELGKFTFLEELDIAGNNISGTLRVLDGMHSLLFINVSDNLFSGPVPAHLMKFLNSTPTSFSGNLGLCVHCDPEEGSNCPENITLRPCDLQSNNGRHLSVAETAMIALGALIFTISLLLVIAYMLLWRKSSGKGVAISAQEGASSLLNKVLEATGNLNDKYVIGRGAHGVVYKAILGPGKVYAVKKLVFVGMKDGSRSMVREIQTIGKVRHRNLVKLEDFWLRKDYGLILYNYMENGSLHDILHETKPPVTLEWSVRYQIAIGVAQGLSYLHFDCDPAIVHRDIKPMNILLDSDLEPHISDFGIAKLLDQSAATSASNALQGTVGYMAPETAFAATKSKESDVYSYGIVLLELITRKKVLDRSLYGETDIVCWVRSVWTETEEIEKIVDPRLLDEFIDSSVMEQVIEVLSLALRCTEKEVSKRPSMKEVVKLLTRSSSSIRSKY
Chain of RER (as listed by the source): as above

Sequence: ATDRRGRPPSRPKVGSGPPPQNN (listed as Solanum lycopersicum) [REF1, 23 amino acid tomato peptide cleaved from precursor PROSIPEP]
- optimum concentration to maximize callus formation ([1]; WT Ailsa Craig explants, CIM, 14 days): 1 nM
- relative callus area ([1]; WT Ailsa Craig, 10 nM REF1 compared with 1 nM): sharp decrease
- relative callus area ([1]; WT Ailsa Craig, CIM with 1 nM REF1 vs without, 14 days): induced larger callus areas; also recorded: highest
- relative callus area, dose dependence ([1]; WT Ailsa Craig, CIM, mock to 10 nM REF1, 14 days): increased in a dose dependent manner
- relative callus area ([1]; prr-1 and prr-2 mutants, CIM with 1 nM REF1, 14 days): restored
- REF1 induced callus formation (relative callus area) [1, 4]: failing to lead to any increase; also recorded: defective
- shoot regeneration ([2]; WT Ailsa Craig, SIM with 1 nM REF1 vs without, 21 days): increased; also recorded: highest
- number of hypocotyl [2, 5]: increased
- relative regeneration frequency [2, 5]: increased
- shoot regeneration ([2]; prr-1 and prr-2 mutants, SIM with 1 nM REF1, 21 days): rescued
- REF1 induced shoot regeneration (shoot regeneration frequency, number of hypocotyl) [2, 4]: did not lead to any increase; also recorded: defective
- complex formation of RER with SERK1, SERK3a and SERK3b (co-IP) [3]: could simulate complex formation; also recorded: REF1-dependent
- auto-phosphorylation of RER (RER): triggers auto-phosphorylation

Reference: patent US20260265771A1, “METHODS OF INCREASING THE REGENERATION EFFICIENCY IN PLANTS” (Institute of Genetics and Developmental Biology Chinese …, priority 2022, published 2026)
